Experimental data published in patent publication US9670227B2, “Thienopyrimidine derivatives, a process for their preparation and pharmaceutical compositions containing them” (LES LABORATOIRES SERVIER, priority 2013, dated 2017).

What was measured:
Mcl-1 protein = Mcl-1 protein (UniProtKB primary accession number: Q07820) (Homo sapiens, UniProt Q07820); assay: Inhibition of Mcl-1 by fluorescence polarisation, Method 1; format: binding; settings: fluorescence polarisation; Method 1, or Method 2; read-out: IC50 (M) Mcl-1 FP
Mcl-1 protein, sequence (Q07820 whole entry): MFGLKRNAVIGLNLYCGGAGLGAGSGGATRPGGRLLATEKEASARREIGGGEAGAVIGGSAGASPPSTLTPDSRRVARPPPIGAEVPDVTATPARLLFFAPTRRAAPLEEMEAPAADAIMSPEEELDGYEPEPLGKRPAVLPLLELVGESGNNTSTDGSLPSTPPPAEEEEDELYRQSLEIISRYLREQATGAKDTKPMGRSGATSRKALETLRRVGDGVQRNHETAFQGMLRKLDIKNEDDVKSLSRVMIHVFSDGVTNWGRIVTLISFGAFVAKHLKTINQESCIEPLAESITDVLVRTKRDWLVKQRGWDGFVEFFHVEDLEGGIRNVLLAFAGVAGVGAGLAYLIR
In short: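 FP competition, 11-point compound titration in 5% final DMSO; protein and labelled probe at 5 nM and 1 nM final in HEPES/NaCl/Tween 20 buffer, pH 7.4.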

[1] = tested on: H929 multiple myeloma tumour line; assay: In vitro cytotoxicity, Microculture Tetrazolium Assay; format: cell-based; settings: Homo sapiens, NCI-H929, 48 h, H929 cells, 48 hours exposure, MTT; read-out: IC50 (μM) MTT H929
Description: The cytotoxicity studies were carried out on the H929 multiple myeloma tumour line.
The cells are distributed onto microplates and exposed to the test compounds for 48 hours.

SMILES | IC50 (Mcl-1 protein) | IC50 [1]
C=Cc1ccc(-c2sc3ncnc(OC(Cc4ccccc4OC)C(=O)O)c3c2-c2ccc(OCCN3CCN(C)CC3)c(Cl)c2C)o1 [Example 584, (2R)-2-{[(5Sa)-5-{3-chloro-2-methyl-4-[2-(4-methylpiperazin-1-yl)ethoxy]phenyl}-6-(5-ethenylfuran-2-yl)thieno[2,3-d]pyrimidin-4-yl]oxy}-3-(2-methoxyphenyl)propanoic acid] | 2.9e-08 M | 0.902 µM
COc1ccccc1CC(Oc1ncnc2sc(-c3ccc(C4CC4)o3)c(-c3ccc(OCCN4CCN(C)CC4)c(Cl)c3C)c12)C(=O)O [Example 585, (2R)-2-{[(5Sa)-5-{3-chloro-2-methyl-4-[2-(4-methylpiperazin-1-yl)ethoxy]phenyl}-6-(5-cyclopropylfuran-2-yl)thieno[2,3-d]pyrimidin-4-yl]oxy}-3-(2-methoxyphenyl)propanoic acid] | 8.5e-08 M | 2.92 µM
COc1ccccc1CC(Oc1ncnc2sc(-c3cccc(OCc4ccncc4)c3)c(-c3ccc(OCCN4CCN(C)CC4)c(Cl)c3C)c12)C(=O)O [Example 587, (2R)-2-[((5Sa)-5-{3-chloro-2-methyl-4-[2-(4-methylpiperazin-1-yl)ethoxy]phenyl}-6-[3-(pyridin-4-ylmethoxy)phenyl]thieno[2,3-d]pyrimidin-4-yl)oxy]-3-(2-methoxyphenyl)propanoic acid] | 2.6e-08 M | 0.539 µM
COc1ccccc1CC(Oc1ncnc2sc(-c3cccc(OCCN4CCOCC4)c3)c(-c3ccc(OCCN4CCN(C)CC4)c(Cl)c3C)c12)C(=O)O [Example 588, (2R)-2-[((5Sa)-5-{3-chloro-2-methyl-4-[2-(4-methylpiperazin-1-yl)ethoxy]phenyl}-6-{3-[2-(morpholin-4-yl)ethoxy]phenyl}thieno[2,3-d]pyrimidin-4-yl)oxy]-3-(2-methoxyphenyl)propanoic acid] | 8e-09 M | 0.256 µM
COCCOc1cccc(-c2sc3ncnc(OC(Cc4ccccc4OC)C(=O)O)c3c2-c2ccc(OCCN3CCN(C)CC3)c(Cl)c2C)c1 [Example 589, (2R)-2-[((5Sa)-5-{3-chloro-2-methyl-4-[2-(4-methylpiperazin-1-yl)ethoxy]phenyl}-6-[3-(2-methoxyethoxy)phenyl]thieno[2,3-d]pyrimidin-4-yl)oxy]-3-(2-methoxyphenyl)propanoic acid] | 8.7e-09 M | 0.233 µM
COCc1cc(-c2sc3ncnc(OC(Cc4ccccc4OCc4ccnc(OC)n4)C(=O)O)c3c2-c2ccc(OCCN3CCN(C)CC3)c(Cl)c2C)ccc1F [Example 594, (2R)-2-[((5Sa)-5-{3-chloro-2-methyl-4-[2-(4-methylpiperazin-1-yl)ethoxy]phenyl}-6-[4-fluoro-3-(methoxymethyl)phenyl]thieno[2,3-d]pyrimidin-4-yl)oxy]-3-{2-[(2-methoxypyrimidin-4-yl)methoxy]phenyl}propanoic acid] | 6.1e-09 M | 0.13 µM
COc1nccc(COc2ccccc2CC(Oc2ncnc3sc(-c4ccc(F)c(O)c4)c(-c4ccc(OCCN5CCN(C)CC5)c(Cl)c4C)c23)C(=O)O)n1 [Example 595, (2R)-2-{[(5Sa)-5-{3-chloro-2-methyl-4-[2-(4-methylpiperazin-1-yl)ethoxy]phenyl}-6-(4-fluoro-3-hydroxyphenyl)thieno[2,3-d]pyrimidin-4-yl]oxy}-3-{2-[(2-methoxypyrimidin-4-yl)methoxy]phenyl}propanoic acid] | 6.2e-09 M | 0.114 µM
COc1nccc(COc2ccccc2CC(Oc2ncnc3sc(-c4ccc(F)c(OCCN5CCOCC5)c4)c(-c4ccc(OCCN5CCN(C)CC5)c(Cl)c4C)c23)C(=O)O)n1 [Example 596, (2R)-2-[((5Sa)-5-{3-chloro-2-methyl-4-[2-(4-methylpiperazin-1-yl)ethoxy]phenyl}-6-{4-fluoro-3-[2-(morpholin-4-yl)ethoxy]phenyl}thieno[2,3-d]pyrimidin-4-yl)oxy]-3-{2-[(2-methoxypyrimidin-4-yl)methoxy]phenyl}propanoic acid] | 2.7e-09 M | 0.12 µM
COc1nccc(COc2ccccc2CC(Oc2ncnc3sc(-c4ccc(F)c(OCCO)c4)c(-c4ccc(OCCN5CCN(C)CC5)c(Cl)c4C)c23)C(=O)O)n1 [Example 597, (2R)-2-[((5Sa)-5-{3-chloro-2-methyl-4-[2-(4-methylpiperazin-1-yl)ethoxy]phenyl}-6-[4-fluoro-3-(2-hydroxyethoxy)phenyl]thieno[2,3-d]pyrimidin-4-yl)oxy]-3-{2-[(2-methoxypyrimidin-4-yl)methoxy]phenyl}propanoic acid] | 6.2e-09 M | 0.449 µM
COCCOc1cc(-c2sc3ncnc(OC(Cc4ccccc4OCc4ccnc(OC)n4)C(=O)O)c3c2-c2ccc(OCCN3CCN(C)CC3)c(Cl)c2C)ccc1F [Example 598, (2R)-2-[((5Sa)-5-{3-chloro-2-methyl-4-[2-(4-methylpiperazin-1-yl)ethoxy]phenyl}-6-[4-fluoro-3-(2-methoxyethoxy)phenyl]thieno[2,3-d]pyrimidin-4-yl)oxy]-3-{2-[(2-methoxypyrimidin-4-yl)methoxy]phenyl}propanoic acid] | 7.8e-09 M | 0.097 µM
CCCCn1nccc1COc1ccccc1CC(Oc1ncnc2sc(-c3ccc(C#N)cc3)c(-c3ccc(OCCN4CCN(C)CC4)c(Cl)c3C)c12)C(=O)O [Example 600, (2R)-3-{2-[(1-butyl-1H-pyrazol-5-yl)methoxy]phenyl}-2-{[(5Sa)-5-{3-chloro-2-methyl-4-[2-(4-methylpiperazin-1-yl)ethoxy]phenyl}-6-(4-cyanophenyl)thieno[2,3-d]pyrimidin-4-yl]oxy}propanoic acid] | 4.1e-09 M | 0.031 µM
CCCCn1nccc1COc1ccccc1CC(Oc1ncnc2sc(-c3ccc(CC)cc3)c(-c3ccc(OCCN4CCN(C)CC4)c(Cl)c3C)c12)C(=O)O [Example 601, (2R)-3-{2-[(1-butyl-1H-pyrazol-5-yl)methoxy]phenyl}-2-{[(5Sa)-5-{3-chloro-2-methyl-4-[2-(4-methylpiperazin-1-yl)ethoxy]phenyl}-6-(4-ethylphenyl)thieno[2,3-d]pyrimidin-4-yl]oxy}propanoic acid] | 1.2e-08 M | 0.133 µM
CCCCn1nccc1COc1ccccc1CC(Oc1ncnc2sc(-c3ccc(O)cc3)c(-c3ccc(OCCN4CCN(C)CC4)c(Cl)c3C)c12)C(=O)O [Example 602, (2R)-3-{2-[(1-butyl-1H-pyrazol-5-yl)methoxy]phenyl}-2-{[(5Sa)-5-{3-chloro-2-methyl-4-[2-(4-methylpiperazin-1-yl)ethoxy]phenyl}-6-(4-hydroxyphenyl)thieno[2,3-d]pyrimidin-4-yl]oxy}propanoic acid] | 3.7e-09 M | 0.156 µM
CCCCn1nccc1COc1ccccc1CC(Oc1ncnc2sc(-c3ccc(OC)cc3)c(-c3ccc(OCCN4CCN(C)CC4)c(Cl)c3C)c12)C(=O)O [Example 603, (2R)-3-{2-[(1-butyl-1H-pyrazol-5-yl)methoxy]phenyl}-2-{[(5Sa)-5-{3-chloro-2-methyl-4-[2-(4-methylpiperazin-1-yl)ethoxy]phenyl}-6-(4-methoxyphenyl)thieno[2,3-d]pyrimidin-4-yl]oxy}propanoic acid] | 5e-09 M | 0.036 µM
CCCCn1nccc1COc1ccccc1CC(Oc1ncnc2sc(-c3ccc(OCC)cc3)c(-c3ccc(OCCN4CCN(C)CC4)c(Cl)c3C)c12)C(=O)O [Example 604, (2R)-3-{2-[(1-butyl-1H-pyrazol-5-yl)methoxy]phenyl}-2-{[(5Sa)-5-{3-chloro-2-methyl-4-[2-(4-methylpiperazin-1-yl)ethoxy]phenyl}-6-(4-ethoxyphenyl)thieno[2,3-d]pyrimidin-4-yl]oxy}propanoic acid] | 5.7e-09 M | 0.064 µM
CCCCn1nccc1COc1ccccc1CC(Oc1ncnc2sc(-c3ccc(-c4ccc(Cl)nc4)nc3)c(-c3ccc(OCCN4CCN(C)CC4)c(Cl)c3C)c12)C(=O)O [Example 605, (2R)-3-{2-[(1-butyl-1H-pyrazol-5-yl)methoxy]phenyl}-2-{[6-(6′-chloro-2,3′-bipyridin-5-yl)-(5Sa)-5-{3-chloro-2-methyl-4-[2-(4-methylpiperazin-1-yl)ethoxy]phenyl}thieno[2,3-d]pyrimidin-4-yl]oxy}propanoic acid] | 8.2e-09 M | 0.254 µM
CCCCn1nccc1COc1ccccc1CC(Oc1ncnc2sc(-c3ccc(Cl)nc3)c(-c3ccc(OCCN4CCN(C)CC4)c(Cl)c3C)c12)C(=O)O [Example 606, (2R)-3-{2-[(1-butyl-1H-pyrazol-5-yl)methoxy]phenyl}-2-{[(5Sa)-5-{3-chloro-2-methyl-4-[2-(4-methylpiperazin-1-yl)ethoxy]phenyl}-6-(6-chloropyridin-3-yl)thieno[2,3-d]pyrimidin-4-yl]oxy}propanoic acid] | 4e-09 M | 0.064 µM
CCCCn1nccc1COc1ccccc1CC(Oc1ncnc2sc(-c3ccc(F)nc3)c(-c3ccc(OCCN4CCN(C)CC4)c(Cl)c3C)c12)C(=O)O [Example 607, (2R)-3-{2-[(1-butyl-1H-pyrazol-5-yl)methoxy]phenyl}-2-{[(5Sa)-5-{3-chloro-2-methyl-4-[2-(4-methylpiperazin-1-yl)ethoxy]phenyl}-6-(6-fluoropyridin-3-yl)thieno[2,3-d]pyrimidin-4-yl]oxy}propanoic acid] | 3.5e-09 M | 0.04 µM
CCCCn1nccc1COc1ccccc1CC(Oc1ncnc2sc(-c3ccc(OC)nc3)c(-c3ccc(OCCN4CCN(C)CC4)c(Cl)c3C)c12)C(=O)O [Example 608, (2R)-3-{2-[(1-butyl-1H-pyrazol-5-yl)methoxy]phenyl}-2-{[(5Sa)-5-{3-chloro-2-methyl-4-[2-(4-methylpiperazin-1-yl)ethoxy]phenyl}-6-(6-methoxypyridin-3-yl)thieno[2,3-d]pyrimidin-4-yl]oxy}propanoic acid] | 4.2e-09 M | 0.021 µM
